Active and inactive are the calls of the source. The rule behind the calls is not given here.
Legend:
[1] = test system: Candida albicans; assay: Induction of apoptosis in Candida albicans CA5 assessed as nuclear condensation at MIC measured after 2 hrs by concavaline-FITC/PI/DAPI-staining based fluorescence microscopic analysis relative to DMSO control; assay type: functional, organism-based
[2] = organism: Danio rerio; assay: Toxicity against zebrafish embryo assessed as teratogenic embryos at 5 ug/ml measured at 96 hrs post fertilization by inverted microscopic analysis; assay type: organism-based; settings: in vivo
[3] = test system: Candida albicans; assay: Antifungal activity against Candida albicans CA5 assessed as fungal growth at sub-MIC measured after 24 hrs by time-kill dependence-based spectrophotometric analysis relative to DMSO control; assay type: functional, organism-based
[4] = organism: Danio rerio; assay: Toxicity against zebrafish embryo assessed as effect on eyes at 25 ug/ml measured at 96 hrs post fertilization by inverted microscopic analysis; assay type: organism-based; settings: in vivo
[5] = organism: Danio rerio; assay: Toxicity against zebrafish embryo assessed as effect on tail tip at 2.5 ug/ml measured at 96 hrs post fertilization by inverted microscopic analysis; assay type: organism-based; settings: in vivo
[6] = organism: Danio rerio; assay: Toxicity against zebrafish embryo assessed as effect on notochord at 50 ug/ml measured at 96 hrs post fertilization by inverted microscopic analysis; assay type: organism-based; settings: in vivo
[7] = test system: Danio rerio; assay: Toxicity against zebrafish embryo assessed as yolk edema at 25 ug/ml measured at 96 hrs post fertilization by inverted microscopic analysis; assay type: organism-based; settings: in vivo
[8] = organism: Danio rerio; assay: Toxicity against zebrafish embryo assessed as effect on heart beat at 10 ug/ml measured at 96 hrs post fertilization by inverted microscopic analysis; assay type: organism-based; settings: in vivo
[9] = test system: Candida albicans; assay: Antibiofilm activity against Candida albicans ATCC 10231 assessed as disruption of preformed biofilm after 24 hrs by concanavalin A-FITC-staining based fluorescence microscopic analysis; assay type: functional
[10] = organism: Danio rerio; assay: Toxicity against zebrafish embryo assessed as effect on eyes at 10 ug/ml measured at 96 hrs post fertilization by inverted microscopic analysis; assay type: organism-based; settings: in vivo
[11] = organism: Danio rerio; assay: Toxicity against zebrafish embryo assessed as effect on notochord at 25 ug/ml measured at 96 hrs post fertilization by inverted microscopic analysis; assay type: organism-based; settings: in vivo
[12] = Selectivity index, ratio of IC50 for human MRC5 cell to MIC for Candida albicans CA5
[13] = test system: Candida parapsilosis; assay: Antibiofilm activity against Candida parapsilosis C27 assessed as inhibition of hyphae formation at MIC after 24 hrs by concanavalin A-FITC-staining based fluorescence microscopic analysis; assay type: functional, organism-based
[14] = test system: Microsporum canis; assay: Antifungal activity against Microsporum canis DMT2 by broth dilution method; assay type: functional
[15] = test system: Danio rerio; assay: Toxicity against zebrafish embryo assessed as yolk edema at 5 ug/ml measured at 96 hrs post fertilization by inverted microscopic analysis; assay type: organism-based; settings: in vivo
[16] = organism: Danio rerio; assay: Toxicity against zebrafish embryo assessed as teratogenic embryos at 25 ug/ml measured at 96 hrs post fertilization by inverted microscopic analysis; assay type: organism-based; settings: in vivo
[17] = organism: Danio rerio; assay: Toxicity against zebrafish embryo assessed as effect on heart beat at 5 ug/ml measured at 96 hrs post fertilization by inverted microscopic analysis; assay type: organism-based; settings: in vivo
[18] = organism: Danio rerio; assay: Toxicity against zebrafish embryo assessed as skeletal deformities at 25 ug/ml measured at 96 hrs post fertilization by inverted microscopic analysis; assay type: organism-based; settings: in vivo
[19] = test system: Danio rerio; assay: Toxicity against zebrafish embryo assessed as pericardial edema at 2.5 ug/ml measured at 96 hrs post fertilization by inverted microscopic analysis; assay type: organism-based; settings: in vivo
[20] = test system: Pichia kudriavzevii; assay: Antibiofilm activity against Candida krusei ATCC 34135 assessed as inhibition of hyphae formation at MIC after 24 hrs by concanavalin A-FITC-staining based fluorescence microscopic analysis; assay type: functional, organism-based
[21] = organism: Danio rerio; assay: Toxicity against zebrafish embryo assessed as teratogenic embryos at 10 ug/ml measured at 96 hrs post fertilization by inverted microscopic analysis; assay type: organism-based; settings: in vivo
[22] = organism: Danio rerio; assay: Toxicity against zebrafish embryo assessed as growth retardation at 5 ug/ml measured at 96 hrs post fertilization by inverted microscopic analysis; assay type: organism-based; settings: in vivo
[23] = test system: Danio rerio; assay: Toxicity against zebrafish embryo assessed as yolk edema at 50 ug/ml measured at 96 hrs post fertilization by inverted microscopic analysis; assay type: organism-based; settings: in vivo
[24] = test system: Pichia kudriavzevii; assay: Antibiofilm activity against 48 hrs pre-formed Candida krusei ATCC 34135 assessed as inhibition of hyphae formation at MIC after 24 hrs by concanavalin A-FITC-staining based fluorescence microscopic analysis; assay type: functional, organism-based
[25] = organism: Danio rerio; assay: Toxicity against zebrafish embryo assessed as normal embryos at 10 ug/ml measured at 96 hrs post fertilization by inverted microscopic analysis; assay type: organism-based; settings: in vivo
[26] = organism: Danio rerio; assay: Toxicity against zebrafish embryo assessed as head malformation at 25 ug/ml measured at 96 hrs post fertilization by inverted microscopic analysis; assay type: organism-based; settings: in vivo
[27] = test system: Candida albicans; assay: Antibiofilm activity against Candida albicans ATCC 10231 assessed as inhibition of hyphae formation at MIC after 24 hrs by concanavalin A-FITC-staining based fluorescence microscopic analysis; assay type: functional, organism-based
[28] = organism: Danio rerio; assay: Toxicity against zebrafish embryo assessed as effect on blood circulation at 25 ug/ml measured at 96 hrs post fertilization by inverted microscopic analysis; assay type: organism-based; settings: in vivo
[29] = organism: Danio rerio; assay: Toxicity against zebrafish embryo assessed as unhatched embryos at 25 ug/ml measured at 96 hrs post fertilization by inverted microscopic analysis; assay type: organism-based; settings: in vivo
[30] = organism: Danio rerio; assay: Toxicity against zebrafish embryo assessed as effect on tail tip at 10 ug/ml measured at 96 hrs post fertilization by inverted microscopic analysis; assay type: organism-based; settings: in vivo
[31] = Toxicity against zebrafish embryo assessed as dead embryos at 5 ug/ml measured at 96 hrs post fertilization by inverted microscopic analysis; assay type: organism-based, Danio rerio; settings: read-out: Activity
[32] = organism: Danio rerio; assay: Toxicity against zebrafish embryo assessed as effect on eyes at 2.5 ug/ml measured at 96 hrs post fertilization by inverted microscopic analysis; assay type: organism-based; settings: in vivo
[33] = organism: Danio rerio; assay: Toxicity against zebrafish embryo assessed as effect on otoliths at 25 ug/ml measured at 96 hrs post fertilization by inverted microscopic analysis; assay type: organism-based; settings: in vivo
[34] = organism: Danio rerio; assay: Toxicity against zebrafish embryo assessed as effect on tail tip at 25 ug/ml measured at 96 hrs post fertilization by inverted microscopic analysis; assay type: organism-based; settings: in vivo
[35] = test system: Danio rerio; assay: Toxicity against zebrafish embryo assessed as pericardial edema at 25 ug/ml measured at 96 hrs post fertilization by inverted microscopic analysis; assay type: organism-based; settings: in vivo
[36] = organism: Danio rerio; assay: Toxicity against zebrafish embryo assessed as growth retardation at 25 ug/ml measured at 96 hrs post fertilization by inverted microscopic analysis; assay type: organism-based; settings: in vivo
[37] = organism: Danio rerio; assay: Toxicity against zebrafish embryo assessed as unhatched embryos at 50 ug/ml measured at 96 hrs post fertilization by inverted microscopic analysis; assay type: organism-based; settings: in vivo
[38] = organism: Danio rerio; assay: Toxicity against zebrafish embryo assessed as effect on heart beat at 2.5 ug/ml measured at 96 hrs post fertilization by inverted microscopic analysis; assay type: organism-based; settings: in vivo
[39] = test system: Aspergillus fumigatus; assay: Antifungal activity against Aspergillus fumigatus ATCC 13073 by broth dilution method; assay type: functional
[40] = organism: Danio rerio; assay: Toxicity against zebrafish embryo assessed as normal embryos at 5 ug/ml measured at 96 hrs post fertilization by inverted microscopic analysis; assay type: organism-based; settings: in vivo
[41] = organism: Danio rerio; assay: Toxicity against zebrafish embryo assessed as effect on tail tip at 50 ug/ml measured at 96 hrs post fertilization by inverted microscopic analysis; assay type: organism-based; settings: in vivo
[42] = organism: Danio rerio; assay: Toxicity against zebrafish embryo assessed as effect on heart beat at 25 ug/ml measured at 96 hrs post fertilization by inverted microscopic analysis; assay type: organism-based; settings: in vivo
[43] = test system: Candida albicans; assay: Antifungal activity against Candida albicans CA5 assessed as fungal growth at sub-MIC measured over 12 hrs by time-kill dependence-based spectrophotometric analysis relative to DMSO control; assay type: functional
[44] = Hemolytic effect in sheep RBC assessed as release of hemoglobin at cytotoxic IC50 after 1 hr; assay type: cell-based, Ovis aries, Erythrocyte; settings: sheep red blood cells, read-out: Activity
[45] = Hemolytic effect in sheep RBC assessed as release of hemoglobin at MIC after 1 hr; assay type: ADME, cell-based, Ovis aries, Erythrocyte; settings: sheep red blood cells, read-out: Activity

For Cl.Cl.N=C(N)N/N=C/c1ccc(-c2ccc(/C=N/NC(=N)N)s2)cc1, the Activity [1] was “inactive”, the Activity [2] was 0% and the Activity [3] was “inactive”. The Activity [4] was 0%, the Activity [5] was 0% and the Activity [6] was 0%. For the same compound, the Activity [7] was 0%, the Activity [8] was 0% and the MBEC [9] was 250 µg/mL. For the same compound, the Activity [10] was 0%, the Activity [11] was 0% and the “Selectivity Index” value [12] was 20. For the same compound, the Activity [13] was “Active”, the MIC [14] was 0.97 µg/mL and the Activity [15] was 0%. For the same compound, the Activity [16] was 0%, the Activity [17] was 0% and the Activity [18] was 0%. The Activity [19] was 0%, the Activity [20] was “Active” and the Activity [21] was 0%. The Activity [22] was 0%, the Activity [23] was 0% and the Activity [24] was “inactive”. The Activity [25] was 100%, the Activity [26] was 0% and the Activity [27] was “Active”. It also gave an Activity [28] of 0%, an Activity [29] of 0% and an Activity [30] of 0%. For the same compound, the mortality at 96 h, 5 ug/ml [31] was 0%, the Activity [32] was 0% and the Activity [33] was 0%. It also gave an Activity [34] of 0%, an Activity [35] of 0% and an Activity [36] of 0%. It also gave an Activity [37] of 0%, an Activity [38] of 0% and an MIC [39] of 25 µg/mL. The Activity [40] was 100%, the Activity [41] was 0% and the Activity [42] was 0%.

For Cl.N=C(N)N/N=C/c1ccc(-c2ccc(Br)cc2)s1, the Activity [43] was 50%, the Activity [2] was 10% and the Activity [3] was “inactive”. The Activity [4] was 0%, the Activity [5] was 0% and the Activity [7] was 0%. For the same compound, the Activity [8] was 0%, the MBEC [9] was 125 µg/mL and the Activity [10] was 0%. For the same compound, the Activity [11] was 0%, the hemolysis at 1 h [44] was no more than 10% and the MIC [14] was 0.25 µg/mL. The Activity [15] was 0%, the Activity [16] was 26.67% and the hemolysis at 1 h [45] was no more than 10%. For the same compound, the Activity [17] was 0%, the Activity [18] was 0% and the Activity [19] was 0%. The Activity [21] was 23.33%, the Activity [22] was 0% and the Activity [25] was 46.67%. It also gave an Activity [26] of 0%, an Activity [28] of 0% and an Activity [29] of 0%. It also gave an Activity [30] of 0%, a mortality at 96 h, 5 ug/ml [31] of 10% and an Activity [32] of 0%. It also gave an Activity [33] of 0%, an Activity [34] of 100% and an Activity [35] of 100%. The Activity [36] was 0%, the Activity [38] was 0% and the MIC [39] was 6.25 µg/mL. For the same compound, the Activity [40] was 80% and the Activity [42] was 0%.

In the case of Cc1ccc(-c2ccc(/C=N/NC(=N)N)s2)cc1.Cl, the Activity [43] is reported as 50%, the Activity [1] is reported as “inactive” and the Activity [2] is reported as 80%. For the same compound, the Activity [3] was “inactive”, the Activity [5] was 0% and the Activity [8] was 0%. The MBEC [9] was 125 µg/mL, the Activity [10] was 100% and the “Selectivity Index” value [12] was 5. The hemolysis at 1 h [44] was no more than 10%, the Activity [13] was “Active” and the MIC [14] was 1.56 µg/mL. It also gave an Activity [15] of 0%, an Activity [16] of 0% and a hemolysis at 1 h [45] of no more than 10%. For the same compound, the Activity [17] was 0%, the Activity [19] was 7.41% and the Activity [20] was “Active”. The Activity [21] was 50%, the Activity [22] was 0% and the Activity [24] was “Active”. For the same compound, the Activity [25] was 0%, the Activity [27] was “Active” and the Activity [30] was 0%. For the same compound, the mortality at 96 h, 5 ug/ml [31] was 20%, the Activity [32] was 0% and the Activity [38] was 0%. The MIC [39] was 6.25 µg/mL and the Activity [40] was 0%.

— ChEMBL document CHEMBL3763135, “Synthesis and evaluation of thiophene-based guanylhydrazones (iminoguanidines) efficient against panel of voriconazole-resistant fungal isolates” (Bioorg Med Chem, 2016)
